Like-named read-outs stand apart in the source and are kept apart here. Numbered stars: 1 amine (or outer) side, 2 acyl side, 3 side chain; on linkers, the order of the positions; unused ones are H or OH. Bridge positions count the residues as written; N and C are the ends. Square brackets hold non-standard residues; d marks the D form. Peptide text beside a SMILES is read from it. * marks the point of attachment. Tartaroyl(2R,3R-(OAc)2) = CC(=O)O[C@@H](C(=O)[*:1])[C@@H](OC(C)=O)C(=O)[*:2]; Phe(3,4-(OMe)2) = COc1ccc(C[C@H](N)C(=O)O)cc1OC; Bip = N[C@@H](Cc1ccc(-c2ccccc2)cc1)C(=O)O; dPhe(4-NH2) = Nc1ccc(C[C@@H](N)C(=O)O)cc1; Phe(4-NH2) = Nc1ccc(C[C@H](N)C(=O)O)cc1; d(hPhe) = N[C@H](CCc1ccccc1)C(=O)O; 2Thi = N[C@@H](Cc1cccs1)C(=O)O; d2Thi = N[C@H](Cc1cccs1)C(=O)O; Suc = O=C(CCC(=O)[*:2])[*:1]; OtBu = CC(C)(C)O*
Target: T1, TNFα / TNFα receptor (TNFα R1/Fc) (Homo sapiens, UniProt P01375)
T1 construct: purchased R&D Systems
T1 sequence (P01375 77-233 limits assumed, species assumed): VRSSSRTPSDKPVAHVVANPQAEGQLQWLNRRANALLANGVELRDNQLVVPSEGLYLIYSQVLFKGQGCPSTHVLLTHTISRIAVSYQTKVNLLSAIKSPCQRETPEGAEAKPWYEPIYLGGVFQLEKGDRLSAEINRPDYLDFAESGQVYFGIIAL
Experiment: Inhibition of binding of TNFα to the TNFα receptor (plate ELISA competition)
Conditions: Table 2
Summary of the method: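 Compound dilutions were preincubated 30 min at RT with 8.33 nM TNFα R1/Fc in PBST with 2% DMSO, then added to wells coated with 15 nM TNFα for 30 min. Bound receptor was detected with HRP anti-human Fc and TMB, read as A450.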

[1] = read-out: Activity (IC50, inhibition of TNFα binding to TNFα R1/Fc)
[2] = Activity (IC50, inhibition of TNFα binding to TNFα R1/Fc)

IC50 [1] [µM] | Structure (SMILES) | IC50 [2] [µM]
< 10 | O=C1COc2ccc(cc2)C[C@@H](C(=O)N[C@@H](CO)C(=O)O)NC(=O)[C@H](CCc2ccccc2)NC(=O)[C@@H](Cc2ccc(-c3ccccc3)cc2)NC(=O)[C@H](Cc2ccc(-c3ccncc3)cc2)N1 [Compound 583] | –
10 to 30 | O=C(O)CNC(=O)[C@@H]1Cc2ccc(cc2)OCC(=O)N[C@@H](Cc2ccc(-c3ccccc3)cc2)C(=O)N[C@H](Cc2ccc(-c3ccccc3)cc2)C(=O)N[C@@H](CCc2ccccc2)C(=O)N1 [Compound 570] | –
< 10 | CC(=O)O[C@H]1C(=O)Nc2ccc(cc2)C[C@H](C(=O)N[C@@H](Cc2ccccc2)C(=O)O)NC(=O)[C@@H](Cc2ccccc2)NC(=O)[C@H](Cc2ccc(-c3ccccc3)cc2)NC(=O)[C@@H](Cc2cccs2)NC(=O)[C@@H]1OC(C)=O [Compound 394] ([d2Thi][Bip][dF][dPhe(4-NH2)]F-OH; linker N-4 via Tartaroyl(2R,3R-(OAc)2)) | –
30 to 100 | O=C(O)CCCNC(=O)[C@@H]1Cc2ccc(cc2)OCC(=O)N[C@@H](Cc2ccc(-c3ccccc3)cc2)C(=O)N[C@H](Cc2ccc(-c3ccccc3)cc2)C(=O)N[C@@H](CCc2ccccc2)C(=O)N1 [Compound 568] | –
– | O=C1COc2ccc(cc2)C[C@@H](C(=O)N[C@H](Cc2ccccc2)C(=O)O)NC(=O)[C@H](CCc2ccccc2)NC(=O)[C@@H](Cc2ccc(-c3ccccc3)cc2)NC(=O)[C@H](Cc2ccncc2)N1 [Compound 553] | < 10
10 to 30 | COC(=O)[C@@H](CC(=O)O)NC(=O)[C@@H]1Cc2ccc(cc2)NC(=O)CCC(=O)N[C@H](CCc2ccccc2)C(=O)N[C@@H](Cc2ccc(-c3ccccc3)cc2)C(=O)N[C@H](Cc2ccccc2)C(=O)N1 [Compound 351] ([d(hPhe)][Bip][dF][Phe(4-NH2)][dD]-OMe; linker N-4 via Suc) | –
> 100 | CC(C)(C)Oc1ccc(C[C@@H]2NC(=O)COc3ccc(cc3)C[C@@H](C(=O)O)NC(=O)[C@H](Cc3ccccc3)NC(=O)[C@H](Cc3ccc(-c4ccccc4)cc3)NC2=O)cc1 [Compound 489] | –
– | O=C1COc2ccc(cc2)C[C@@H](C(=O)N[C@H](CCc2ccccc2)C(=O)O)NC(=O)[C@H](CCc2ccccc2)NC(=O)[C@@H](Cc2ccc(-c3ccccc3)cc2)NC(=O)[C@H](Cc2c[nH]c3ccccc23)N1 [Compound 743] | < 10
> 100 | O=C1COc2ccc(cc2)C[C@@H](C(=O)O)NC(=O)[C@H](Cc2ccccc2)NC(=O)[C@@H](Cc2ccc(Br)cc2)NC(=O)[C@H](Cc2cccs2)N1 [Compound 399] | –
– | O=C1COc2ccc(cc2)CC(C(=O)O)NC(=O)C(Cc2ccccc2)NC(=O)C(Cc2ccc([N+](=O)[O-])cc2)NC(=O)C(Cc2cccs2)N1 (centres unmarked) [Compound 358] | > 100
– | O=C1COc2ccc(cc2)C[C@@H](C(=O)N[C@@H](Cc2ccccc2)c2nnn[nH]2)NC(=O)[C@H](Cc2ccccc2)NC(=O)[C@@H](Cc2ccc(-c3ccccc3)cc2)NC(=O)[C@H](Cc2cccs2)N1 [Compound 590] | < 10
< 10 | O=C1COc2ccc(cc2)C[C@@H](C(=O)O)NC(=O)[C@H](Cc2ccc(-c3cccnc3)cc2)NC(=O)[C@@H](Cc2ccc(-c3ccccc3)cc2)NC(=O)[C@H](Cc2ccncc2)N1 [Compound 644] | –
30 to 100 | O=C1COc2ccc(cc2)C[C@@H](C(=O)O)NC(=O)[C@@H](CCc2ccccc2)NC(=O)[C@H](Cc2ccc(Cl)cc2Cl)NC(=O)[C@@H](Cc2ccc(C(F)(F)F)cc2)N1 [Compound 148] | –
> 100 | CC(C)(C)OC(=O)C[C@@H]1NC(=O)[C@H](Cc2ccc(-c3ccccc3)cc2)NC(=O)[C@@H](Cc2cccs2)NC(=O)CCC(=O)Nc2ccc(cc2)C[C@@H](C(=O)O)NC1=O [Compound 62] ([d2Thi][Bip]D(OtBu)[Phe(4-NH2)]-OH; linker N-4 via Suc) | –
< 10 | O=C1COc2ccc(cc2)C[C@H](C(=O)N[C@H](CCc2ccccc2)C(=O)O)NC(=O)[C@H](Cc2c[nH]c3ccccc23)NC(=O)[C@@H](Cc2ccc(-c3ccccc3)cc2)NC(=O)[C@H](Cc2c[nH]c3ccccc23)N1 [Compound 739] | –
10 to 30 | O=C1COc2ccc(cc2)C[C@@H](C(=O)O)NC(=O)[C@@H](CCc2ccccc2)NC(=O)[C@H](Cc2ccc(C(F)(F)F)cc2)NC(=O)[C@@H](Cc2ccc(C(F)(F)F)cc2)N1 [Compound 146] | –
< 10 | O=C1COc2ccc(cc2)C[C@@H](C(=O)O)NC(=O)[C@H](CCc2ccccc2)NC(=O)[C@@H](Cc2ccc(-c3ccccc3)cc2)NC(=O)[C@H](Cc2ccc(Cl)cc2Cl)N1 [Compound 697] | –
> 100 | O=C1CCC(=O)N[C@@H](Cc2cccs2)C(=O)N[C@@H](Cc2ccc(-c3ccccc3)cc2)C(=O)N[C@@H](Cc2ccccc2)C(=O)N[C@H](C(=O)O)Cc2ccc(cc2)N1 [Compound 495] ([2Thi][Bip]F[Phe(4-NH2)]-OH; linker N-4 via Suc) | –
< 10 | O=C(O)CCCNC(=O)[C@@H]1Cc2ccc(cc2)OCC(=O)N[C@@H](Cc2ccncc2)C(=O)N[C@H](Cc2ccc(-c3ccccc3)cc2)C(=O)N[C@@H](Cc2c[nH]c3ccccc23)C(=O)N1 [Compound 722] | –
> 100 | O=C1N[C@@H](C(=O)O)Cc2ccc(cc2)NC(=O)[C@H](O)[C@@H](O)C(=O)N[C@H](Cc2cccs2)C(=O)N[C@H](Cc2ccc(-c3ccccc3)cc2)C(=O)N[C@H]1Cc1ccccc1 [Compound 281] | –
– | O=C1COc2ccc(cc2)C[C@@H](C(=O)N2CCC[C@@H]2C(=O)O)NC(=O)[C@@H](CCc2ccccc2)NC(=O)[C@H](Cc2ccc(-c3ccccc3)cc2)NC(=O)[C@@H](Cc2cccs2)N1 [Compound 303] | 10 to 30
30 to 100 | O=C1COc2ccc(cc2)C[C@@H](C(=O)O)NC(=O)[C@@H](Cc2ccccc2)NC(=O)[C@H](Cc2ccc(-c3ccccc3)cc2)NC(=O)[C@@H](Cc2cccs2)N1 [Compound 8] | –
> 100 | COc1ccc(C[C@@H]2NC(=O)[C@@H](Cc3cccs3)NC(=O)CCC(=O)Nc3ccc(cc3)C[C@@H](C(=O)O)NC(=O)[C@@H](Cc3ccccc3)NC2=O)cc1OC [Compound 93] ([d2Thi][Phe(3,4-(OMe)2)][dF][Phe(4-NH2)]-OH; linker N-4 via Suc) | –
< 10 | O=C1COc2ccc(cc2)C[C@@H](C(=O)O)NC(=O)[C@H](Cc2cccs2)NC(=O)[C@@H](Cc2ccc(-c3ccccc3)cc2)NC(=O)[C@H](Cc2ccncc2)N1 [Compound 652] | –
> 100 | O=C1COc2ccc(cc2)C[C@@H](C(=O)O)NC(=O)[C@H](CCc2ccccc2)NC(=O)[C@@H](Cc2ccc(-c3cccnc3)cc2)NC(=O)[C@H](Cc2cccnc2)N1 [Compound 668] | –
– | O=C1COc2ccc(cc2)C[C@@H](C(=O)NCS(=O)(=O)O)NC(=O)[C@H](Cc2ccc(O)cc2)NC(=O)[C@@H](Cc2ccc(-c3ccccc3)cc2)NC(=O)[C@H](Cc2cccs2)N1 [Compound 566] | 10 to 30
< 10 | O=C1COc2ccc(cc2)C[C@@H](C(=O)N(CCS(=O)(=O)O)C(CO)(CO)CO)NC(=O)[C@H](CCc2ccccc2)NC(=O)[C@@H](Cc2ccc(-c3ccccc3)cc2)NC(=O)[C@H](Cc2ccncc2)N1 [Compound 606] | –
30 to 100 | O=C1CCC(=O)N[C@H](Cc2cccs2)C(=O)N[C@@H](Cc2ccc(-c3ccccc3)cc2)C(=O)N[C@H](Cc2ccccc2)C(=O)N[C@H](C(=O)N2CCC[C@@H]2C(=O)O)Cc2ccc(cc2)N1 [Compound 200] ([d2Thi][Bip][dF][Phe(4-NH2)][dP]-OH; linker N-4 via Suc) | –
10 to 30 | O=C(O)CN(Cc1ccccc1)C(=O)[C@@H]1Cc2ccc(cc2)OCC(=O)N[C@@H](Cc2cccs2)C(=O)N[C@H](Cc2ccc(-c3ccccc3)cc2)C(=O)N[C@@H](Cc2ccccc2)C(=O)N1 [Compound 392] | –

Source: patent US8338565B2, “Macrocyclic compounds for inhibition of tumor necrosis factor alpha” (Ensemble Therapeutics Corporation, priority 2008, dated 2012)
